Experimental data as given in patent US9120749B2, “Quinoline derivatives and MELK inhibitors containing the same” (ONCOTHERAPY SCIENCE, INC., priority 2010, dated 2015).
Structures can show the parent of a compound that is named as a salt. Where two headings read alike, the source gives them in different places.

Experiments:
T47D cells = experiment: Cell-based assay: anti-proliferative activity, Cell Counting Kit-8, 72 hours (T47D); conditions: Homo sapiens, T47D, 72 h
In short: (§1)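 IC50 values come from CCK-8 growth measurements taken 72 hours post-treatment of plated cells with test compounds. Expression of MELK across the panel was assessed through immunoblot of unfractionated lysates.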

DU4475 cells = experiment: Cell-based assay: anti-proliferative activity, Cell Counting Kit-8, 72 hours (DU4475)
HT-1197 cells = experiment: Cell-based assay: anti-proliferative activity, Cell Counting Kit-8, 72 hours (HT-1197, negative control without MELK expression); conditions: Homo sapiens, HT1197, 72 h, HT1197 cells (negative control, no MELK expression), 72 hours
In short: as §1

A549 cells = experiment: Cell-based assay: anti-proliferative activity, Cell Counting Kit-8, 72 hours (A549); conditions: 72 hours
In short: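 A549 cells were seeded in 96-well plates and exposed to candidate inhibitors for 72 hours. Cell growth was then measured with Cell Counting Kit-8, and IC50 values were calculated from the resulting growth data.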

MELK = MELK (Homo sapiens, UniProt Q14680); experiment: Kinase assay: MELK activity, phosphorylation of FITC-labeled histone H3 peptide measured by IMAP fluorescence polarization; format: biochemical; conditions: read-out: IC50 (μM) (kinase assay)
In short: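 Substrate is FITC-labeled histone H3 peptide. Compounds come from a 12.5 mM DMSO stock, diluted so assay DMSO is 1%. The stop step adds threefold-volume progressive binding solution, followed by 0.5 h at room temperature and an FP read.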

Sequence of MELK (Q14680 whole entry, looked up): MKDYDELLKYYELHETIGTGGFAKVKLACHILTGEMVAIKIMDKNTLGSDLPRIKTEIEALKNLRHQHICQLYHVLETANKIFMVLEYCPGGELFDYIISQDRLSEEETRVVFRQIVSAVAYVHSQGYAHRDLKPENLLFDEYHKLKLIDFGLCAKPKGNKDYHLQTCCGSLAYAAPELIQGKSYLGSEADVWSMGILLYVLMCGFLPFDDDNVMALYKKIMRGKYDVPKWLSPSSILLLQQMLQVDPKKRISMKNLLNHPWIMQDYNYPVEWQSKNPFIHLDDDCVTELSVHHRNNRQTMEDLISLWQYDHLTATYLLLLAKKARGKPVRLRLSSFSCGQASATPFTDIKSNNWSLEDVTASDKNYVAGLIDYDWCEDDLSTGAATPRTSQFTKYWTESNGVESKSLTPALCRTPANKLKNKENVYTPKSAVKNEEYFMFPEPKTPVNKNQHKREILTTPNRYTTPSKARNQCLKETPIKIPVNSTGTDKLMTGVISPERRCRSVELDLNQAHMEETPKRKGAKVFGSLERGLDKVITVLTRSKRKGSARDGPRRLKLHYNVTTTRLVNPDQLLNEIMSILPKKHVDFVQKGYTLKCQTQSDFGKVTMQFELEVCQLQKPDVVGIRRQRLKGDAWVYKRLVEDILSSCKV

Row | SMILES | IC50 (T47D cells) [µM] | IC50 (DU4475 cells; Homo sapiens, DU-4475, 72 h) [µM] | IC50 (HT-1197 cells) [µM] | IC50 (A549 cells; Homo sapiens, A549, 72 h) [µM] | IC50 (MELK) [µM] | IC50 (DU4475 cells) [µM] | IC50 (A549 cells) [µM]
1 | CCC(=O)c1cnc2ccc(-c3cc(F)c(O)c(Cl)c3)cc2c1N[C@H]1CC[C@H](CN(C)C)CC1 [Example 714, 1-(6-(3-chloro-5-fluoro-4-hydroxyphenyl)-4-((trans-4-((dimethylamino)methyl)cyclohexyl)amino)quinolin-3-yl)propan-1-one] | 0.054 | 0.067 | 0.55 | 0.11 | 0.004 | – | –
2 | O=C(c1cnc2ccc(-c3cc(F)c(O)c(Cl)c3)cc2c1NC1CCC(N2CC[C@@H](F)C2)CC1)C1CC1 (stereo partly drawn) [Example 642, (R)-(6-(3-chloro-5-fluoro-4-hydroxyphenyl)-4-(4-(3-fluoropyrrolidin-1-yl)cyclohexylamino)quinolin-3-yl)(cyclopropyl)methanone] | 0.17 | 0.11 | 0.76 | 0.2 | 0.0075 | – | –
3 | CN1CCN(Cc2ccc(Nc3c(C(=O)C4CC4)cnc4ccc(-c5cc(F)c(O)c(Cl)c5)cc34)cn2)CC1 [Example 684, (6-(3-chloro-5-fluoro-4-hydroxyphenyl)-4-(6-((4-methylpiperazin-1-yl)methyl)pyridin-3-ylamino)quinolin-3-yl)(cyclopropyl)methanone] | 0.88 | 0.82 | 15 | 1.5 | 0.05 | – | –
4 | COc1cc(-c2ccc3ncc(C(=O)C4CC4)c(N[C@H]4CC[C@H](CN5CCN(C)CC5)CC4)c3c2)cc(Cl)c1O [Example 637] | 0.68 | 0.67 | 2.9 | 0.32 | 0.0035 | – | –
5 | COc1cc(-c2ccc3ncc(C(=O)C4CC4)c(Nc4ccc(NCCO)nc4)c3c2)cc(Cl)c1O [Example 677, (6-(3-chloro-4-hydroxy-5-methoxyphenyl)-4-(6-(2-hydroxyethylamino)pyridin-3-ylamino)quinolin-3-yl)(cyclopropyl)methanone] | 0.33 | 0.38 | 1.5 | 0.36 | 0.014 | – | –
6 | CN1CCCC(n2cc(Nc3c(C(=O)C4CC4)cnc4ccc(-c5cc(Cl)c(O)c(Cl)c5)cc34)cn2)C1 (centres unmarked) [Example 703, Cyclopropyl{6-(3,5-dichloro-4-hydroxyphenyl)-4-[1-(1-methylpiperidin-3-yl)-1H-pyrazol-4-ylamino]quinolin-3-yl}methanone] | 0.33 | 0.052 | 5.5 | 0.11 | 0.0013 | – | –
7 | COc1cc(-c2ccc3ncc(C(=O)C4CC4)c(Nc4ccc(N5CCC(O)C5)nc4)c3c2)cc(Cl)c1O (centres unmarked) [Example 669, (6-(3-chloro-4-hydroxy-5-methoxyphenyl)-4-(6-(3-hydroxypyrrolidin-1-yl)pyridin-3-ylamino)quinolin-3-yl)(cyclopropyl)methanone] | 0.24 | 0.75 | 4.4 | 0.46 | 0.012 | – | –
8 | NCCOc1ccc(Nc2c(C(=O)C3CC3)cnc3ccc(-c4cc(F)c(O)c(Cl)c4)cc23)cn1 [Example 724, (4-(6-(2-Aminoethoxy)pyridin-3-ylamino)-6-(3-chloro-5-fluoro-4-hydroxyphenyl)quinolin-3-yl)(cyclopropyl)methanone] | 0.07 | 0.035 | 2.8 | 0.23 | 0.0055 | – | –
9 | CN(C)CC(O)c1ccc(Nc2c(C(=O)C3CC3)cnc3ccc(-c4cc(F)c(O)c(Cl)c4)cc23)cc1 (centres unmarked) [Example 707, {6-(3-Chloro-5-fluoro-4-hydroxyphenyl)-4-[4-(2-(dimethylamino)-1-hydroxyethyl)phenylamino]quinolin-3-yl}(cyclopropyl)methanone] | 0.21 | 0.081 | 3.4 | 0.13 | 0.0059 | – | –
10 | CC(=O)c1cnc2ccc(-c3cc(F)c(O)c(Cl)c3)cc2c1Nc1ccc(CCN(C)C)cc1 [Example 745, 1-(6-(3-chloro-5-fluoro-4-hydroxyphenyl)-4-(4-(2-(dimethylamino)ethyl)phenylamino)quinolin-3-yl)ethanone] | 0.12 | 0.063 | 0.99 | 0.16 | 0.0083 | – | –
11 | CC(=O)c1cnc2ccc(-c3cc(Cl)c(O)c(Cl)c3)cc2c1Nc1ccc2c(c1)CCC2N(C)C (centres unmarked) [Example 720, 1-(6-(3,5-dichloro-4-hydroxyphenyl)-4-((1-(dimethylamino)-2,3-dihydro-1H-inden-5-yl)amino)quinolin-3-yl)ethanone] | 0.059 | 0.032 | 0.38 | 0.063 | 0.0033 | – | –
12 | O=C(c1cnc2ccc(-c3cc(Cl)c(O)c(Cl)c3)cc2c1Nc1ccc(NCCO)nc1)C1CC1 [Example 678, cyclopropyl(6-(3,5-dichloro-4-hydroxyphenyl)-4-(6-(2-hydroxyethylamino)pyridin-3-ylamino)quinolin-3-yl)methanone] | 0.41 | 0.11 | 5.1 | 1.2 | 0.011 | – | –
13 | N[C@H]1CCCN(c2ccc(Nc3c(C(=O)C4CC4)cnc4ccc(-c5cc(Cl)c(O)c(Cl)c5)cc34)cn2)C1 [Example 646, (S)-(4-(6-(3-aminopiperidin-1-yl)pyridin-3-ylamino)-6-(3,5-dichloro-4-hydroxyphenyl)quinolin-3-yl)(cyclopropyl)methanone] | 0.02 | – | 0.56 | – | 0.0011 | 0.0035 | 0.022
14 | COC1CCN(C2CCC(Nc3c(C(=O)C4CC4)cnc4ccc(-c5cc(F)c(O)c(Cl)c5)cc34)CC2)C1 (centres unmarked) [Example 686, (6-(3-chloro-5-fluoro-4-hydroxyphenyl)-4-(4-(3-methoxypyrrolidin-1-yl)cyclohexylamino)quinolin-3-yl)(cyclopropyl)methanone] | 0.19 | 0.16 | 1.1 | 0.17 | 0.0035 | – | –
15 | CC1(N)CCC(Nc2c(C(=O)C3CC3)cnc3ccc(-c4cc(Cl)c(O)c(Cl)c4)cc23)CC1 (centres unmarked) [Example 638, [4-(4-Amino-4-methylcyclohexylamino)-6-(3,5-dichloro-4-hydroxyphenyl)quinolin-3-yl](cyclopropyl)methanone] | 0.1 | 0.022 | 0.67 | 0.12 | 0.0034 | – | –
16 | CN1CCCC(n2cc(Nc3c(C(=O)C4CC4)cnc4ccc(-c5cc(F)c(O)c(Cl)c5)cc34)cn2)C1 (centres unmarked) [Example 699, {6-(3-Chloro-5-fluoro-4-hydroxyphenyl)-4-[1-(1-methylpiperidin-3-yl)-1H-pyrazol-4-ylamino]quinolin-3-yl}(cyclopropyl)methanone] | 0.24 | 0.072 | 2.7 | 0.18 | 0.0026 | – | –
17 | N[C@H]1CC[C@H](n2cc(Nc3c(C(=O)C4CC4)cnc4ccc(-c5cc(Cl)c(O)c(Cl)c5)cc34)cn2)CC1 [Example 706, (4-((1-(trans-4-aminocyclohexyl)-1H-pyrazol-4-yl)amino)-6-(3,5-dichloro-4-hydroxyphenyl)quinolin-3-yl)(cyclopropyl)methanone dihydrochloride] | 0.042 | 0.02 | 7.9 | 0.59 | 0.0011 | – | –
18 | CC(=O)c1cnc2ccc(-c3cc(Cl)c(O)c(Cl)c3)cc2c1N[C@@H]1CC[C@@H](CN(C)C)C1 [Example 718, 1-(6-(3,5-dichloro-4-hydroxyphenyl)-4-((1R,3R)-3-((dimethylamino)methyl)cyclopentylamino)quinolin-3-yl)ethanone] | 0.36 | 0.19 | 2 | 0.44 | 0.0055 | – | –
19 | COc1cc(-c2ccc3ncc(C(=O)C4CC4)c(Nc4ccc(C(O)CN(C)C)cc4)c3c2)cc(Cl)c1O (centres unmarked) [Example 708, (6-(3-chloro-4-hydroxy-5-methoxyphenyl)-4-(4-(2-(dimethylamino)-1-hydroxyethyl)phenylamino)quinolin-3-yl)(cyclopropyl)methanone] | 0.41 | 0.25 | 4.6 | 0.3 | 0.0065 | – | –
20 | NCCOc1ccc(Nc2c(C(=O)C3CC3)cnc3ccc(-c4cc(Cl)c(O)c(Cl)c4)cc23)cn1 [Example 723, (4-(6-(2-Aminoethoxy)pyridin-3-ylamino)-6-(3,5-dichloro-4-hydroxyphenyl)quinolin-3-yl)(cyclopropyl)methanone] | 0.099 | 0.028 | 2.1 | 0.23 | 0.0019 | – | –
21 | O=C(c1cnc2ccc(-c3cc(F)c(O)c(Cl)c3)cc2c1N[C@H]1CC[C@H](CN2CCC(O)C2)CC1)C1CC1 (stereo partly drawn) [Example 631, (6-(3-chloro-5-fluoro-4-hydroxyphenyl)-4-((trans-4-((3-hydroxypyrrolidin-1-yl)methyl)cyclohexyl)amino)quinolin-3-yl)(cyclopropyl)methanone] | 0.074 | 0.055 | 0.85 | 0.17 | 0.0021 | – | –
22 | COc1cc(-c2ccc3ncc(C(=O)C4CC4)c(N[C@H]4CC[C@H](CN5CCC(O)C5)CC4)c3c2)cc(Cl)c1O (some centres unmarked) [Example 630] | 0.41 | 0.17 | 3.6 | 0.19 | 0.0023 | – | –
